Where two headings read alike, the source gives them in different places.
Assays:
[1] = tested on: GFP-expressing Mycobacterium tuberculosis H37Rv; assay type: cell-based
[2] = tested on: Mycobacterium tuberculosis (Mtb H37Rv) in human monocyte-derived macrophages (hMDM); assay type: cell-based; conditions: seven days; for intracellular growth of Mycobacterium tuberculosis in primary human macrophages (CFU): 300 nM
[3] = tested on: human monocyte-derived macrophages (hMDM); test: Cell viability analysis by impedance measurements (xCELLigence); assay type: cell-based; conditions: FIG. 5 and 6, range of tested concentrations (30, 100 and 300 nM), 120 h
Procedure: 3) Cell Viability Analysis by Impedance Measurements
Real-time viability assays (5×10^4 human monocyte derived macrophages/well) were performed with the xCELLigence System (Acea Biosciences Inc.) (Otero-Gonzalez L et al., Environ Sci Technol. 2012; 46(18):10271-8). Impedance measurement was carried out using plates with incorporated sensor array (E-Plate) and the Real-Time Cell Analyzer (RTCA) SP instrument for 120 h. After equilibration of the cells in RPMI 1640 with 10% FCS and 4 mM L-glutamine for 3 h, cells incubated in the absence (medium) or the presence of the ACC2 inhibitor (30, 100 and 300 nM) and staurosporine (1 μg/ml). Data obtained was analyzed using the RTCA Software 2.0 (Acea Biosciences Inc.) see FIGS. 5 and 6.

M. tuberculosis AccD5 = M. tuberculosis AccD5 (Mycobacterium tuberculosis, UniProt P9WQH7); conditions: literature, Lin T-W. et al., PNAS 2006; cited from earlier work
M. tuberculosis AccD5, sequence (P9WQH7 whole entry): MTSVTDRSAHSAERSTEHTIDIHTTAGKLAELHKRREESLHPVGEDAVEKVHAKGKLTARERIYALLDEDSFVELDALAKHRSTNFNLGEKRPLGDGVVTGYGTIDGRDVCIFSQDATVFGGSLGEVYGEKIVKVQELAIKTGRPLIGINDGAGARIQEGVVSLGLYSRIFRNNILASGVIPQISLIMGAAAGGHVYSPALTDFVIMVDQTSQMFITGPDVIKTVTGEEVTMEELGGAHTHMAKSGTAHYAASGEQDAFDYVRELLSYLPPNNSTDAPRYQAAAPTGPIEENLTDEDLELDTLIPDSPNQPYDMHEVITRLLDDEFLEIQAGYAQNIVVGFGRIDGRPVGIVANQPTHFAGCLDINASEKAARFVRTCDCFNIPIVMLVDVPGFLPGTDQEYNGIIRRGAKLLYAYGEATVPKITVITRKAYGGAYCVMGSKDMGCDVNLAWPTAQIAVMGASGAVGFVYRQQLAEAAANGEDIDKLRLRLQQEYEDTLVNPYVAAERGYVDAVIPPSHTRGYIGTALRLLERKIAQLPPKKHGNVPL
M. tuberculosis AccD5, sequence (P9WPQ3 whole entry, further chain): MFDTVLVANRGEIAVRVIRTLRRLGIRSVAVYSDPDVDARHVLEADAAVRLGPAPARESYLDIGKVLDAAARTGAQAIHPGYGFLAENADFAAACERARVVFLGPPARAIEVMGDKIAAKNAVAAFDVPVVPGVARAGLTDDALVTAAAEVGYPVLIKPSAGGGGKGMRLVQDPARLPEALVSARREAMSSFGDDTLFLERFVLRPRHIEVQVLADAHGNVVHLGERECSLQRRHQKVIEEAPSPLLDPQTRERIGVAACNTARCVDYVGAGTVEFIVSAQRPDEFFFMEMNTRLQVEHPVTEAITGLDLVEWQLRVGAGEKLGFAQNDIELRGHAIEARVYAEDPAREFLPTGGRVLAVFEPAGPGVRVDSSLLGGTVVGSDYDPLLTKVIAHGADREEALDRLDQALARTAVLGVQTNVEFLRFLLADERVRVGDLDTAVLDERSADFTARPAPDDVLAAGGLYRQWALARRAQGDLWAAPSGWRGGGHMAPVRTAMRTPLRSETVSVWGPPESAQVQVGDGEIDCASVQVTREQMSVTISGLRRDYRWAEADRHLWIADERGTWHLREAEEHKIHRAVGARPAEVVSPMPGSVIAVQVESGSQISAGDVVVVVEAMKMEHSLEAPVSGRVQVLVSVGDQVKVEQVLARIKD

M, tuberculosis = conditions: literature, Singhal A. et al., Science Translational Medicine 2014; cited from earlier work
[4] = FIG. 8 and 9, indicated concentrations, day 7

SMILES: COc1cc(C(=O)N2CCC3(CC2)CC(=O)c2cc(-c4cncc(C(=O)O)c4)ccc2O3)cc2c1c(C)cn2C1CC1 [MK-4074]
- growth of Mycobacterium tuberculosis (Mtb) in liquid culture (fluorescence signal intensity at 528 nm) [1, 4]: do not affect growth

SMILES: CC(=O)NC(C)c1cnc(-c2cnc(Oc3ccc(OC(C)C)cc3)s2)s1 (stereo not drawn) [ab142090, N-(1-(2′-(4-isopropoxyphenoxy)-2,5′-bithiazol5-yl)ethyl)Acetamide]
- growth of Mycobacterium tuberculosis (Mtb) in liquid culture (fluorescence signal intensity at 528 nm) ([1]; FIG. 1, indicated concentrations and time points, two independent experiments): does not affect the growth
- intracellular growth of Mycobacterium tuberculosis in primary human macrophages (CFU) ([2]; FIG. 2, 100 nM, three donors): dose-dependently reduces intracellular growth
- intracellular growth of Mycobacterium tuberculosis in primary human macrophages (CFU), combination with antibiotics ([2]; FIG. 3, 100 nM or 300 nM in combination with rifampicin or isoniazid in suboptimal concentrations, three donors): reduces intracellular growth
- viability of primary human macrophages (cell index, impedance) [3]: does not affect the viability

SMILES: COc1ccccc1[C@H](Cn1c(=O)n(C(C)(C)C(N)=O)c(=O)c2c(C)c(-c3ncco3)sc21)OC1CCOCC1 [ND-646]
- growth of Mycobacterium tuberculosis (Mtb) in liquid culture (fluorescence signal intensity at 528 nm) [1, 4]: do not affect growth

SMILES: CC(Oc1ccc(Oc2ncc(C(F)(F)F)cc2Cl)cc1)C(=O)O (stereo not drawn) [Haloxyfop]
- inhibition of M. tuberculosis AccD5 (M. tuberculosis AccD5): cannot be inhibited

SMILES: CN(C)C(=N)N=C(N)N [Metformin]
- intracellular growth of M. tuberculosis (M, tuberculosis): reducing the intracellular growth

SMILES: O=C(c1c2ccccc2cc2ccccc12)N1CCC(N2CCC[C@@H](C(=O)N3CCOCC3)C2)CC1 [CP640.186]
- growth of Mycobacterium tuberculosis (Mtb) in liquid culture (fluorescence signal intensity at 528 nm) [1, 4]: does not affect growth
- intracellular growth of Mycobacterium tuberculosis in primary human macrophages (CFU) ([2]; FIG. 4, 500 nM, one out of two experiments): dose-dependently reduces intracellular growth
- viability of primary human macrophages (cell index, impedance) [3]: does not affect the viability

SMILES: CC(Oc1ccc(Oc2ccc(Cl)cc2Cl)cc1)C(=O)O (stereo not drawn) [Diclofop]
- inhibition of M. tuberculosis AccD5 (M. tuberculosis AccD5): cannot be inhibited

From patent US20210290629A1 (priority 2016, published 2021)
